Calls of active or inactive are those of the source. The calls are words filed in the database; no cut-off is given here.

One assay concerns Mus musculus. The assay is described as follows: Inhibition of EGFR phosphorylation in human NCI-H1975 cells xenografted in BALB/c mouse at 50 mg/kg/day, po for 10 days by immunohistochemistry. Format: functional, organism-based.
The next assay deals with A-431. Kind of assay: Cytotoxicity against human A431 cells incubated for 72 hrs by MTT assay. To be noted: A-431, 72 h. Format: functional, cell-based.
Another assay relates to MDA-MB-231. Kind of assay: Cytotoxicity against human MDA-MB-231 cells incubated for 72 hrs by MTT assay. Format: functional, cell-based. As to conditions: MDA-MB-231, 72 h.
Assay [1] deals with RAC-alpha serine/threonine-protein kinase (Homo sapiens, UniProt P31749). Kind of assay: Inhibition of human recombinant PKBalpha by radiometric kinase assay.
Assay [2] in a line: Inhibition of human recombinant S6K by radiometric kinase assay.
The test system of another assay is HCT-116. Kind of assay: Cytotoxicity against human HCT116 cells incubated for 72 hrs by MTT assay. Format: functional, cell-based. As to conditions: HCT-116, 72 h.
Assay [3] has as its target Macrophage-stimulating protein receptor (Homo sapiens, UniProt Q04912). Kind of assay: Inhibition of human recombinant MST1R by radiometric kinase assay.
Assay [4] has as its target MAP kinase-interacting serine/threonine-protein kinase 1 (Homo sapiens, UniProt Q9BUB5). Kind of assay: Inhibition of human recombinant MNK1 by radiometric kinase assay.
For another assay, the system named is Calu-3. Kind of assay: Cytotoxicity against human Calu3 cells incubated for 72 hrs by MTT assay. Format: functional, cell-based. To be noted: Calu-3, 72 h.
Assay [5] relates to HCC827. Kind of assay: Antitumor activity against human HCC827 cells xenografted in BALB/c mouse assessed as reduction tumor volume at 20 mg/kg, po qd. Format: functional, organism-based. Set-up: dose 20 mg/kg.
For the next assay, the system named is NCI-H292. Kind of assay: Cytotoxicity against human NCI-H292 cells incubated for 72 hrs by MTT assay. In kind it is functional, cell-based. To be noted: NCI-H292, 72 h.
Another assay has as its system PC-9. The assay is described as follows: Cytotoxicity against human PC9 cells incubated for 72 hrs by MTT assay. Format: functional, cell-based. To be noted: PC-9, 72 h.
Assay [6] concerns the target Hepatocyte growth factor receptor (Homo sapiens, UniProt P08581). The assay is described as follows: Inhibition of human recombinant MET by radiometric kinase assay.
Assay [7] addresses Mitogen-activated protein kinase 12 (Homo sapiens, UniProt P53778). The assay is described as follows: Inhibition of human recombinant p38gamma by radiometric kinase assay.
Assay [8] deals with HCC827. The assay is described as follows: Antitumor activity against human HCC827 cells xenografted in BALB/c mouse assessed as reduction in Ki67 expression at 1 mg/kg/day, po for 3 days by immunohistochemistry. Format: functional, organism-based.
Assay [9] has as its target Serine/threonine-protein kinase WNK1 (Homo sapiens, UniProt Q9H4A3). Kind of assay: Inhibition of human recombinant WNK1 by radiometric kinase assay.
A further assay has as its system NCI-H1975. Kind of assay: Antitumor activity against human NCI-H1975 cells xenografted in BALB/c mouse assessed as reduction in Ki67 expression at 50 mg/kg/day, po for 10 days by immunohistochemistry. In kind it is functional, organism-based.
Assay [10] has as its target Tyrosine-protein kinase JAK1 (Homo sapiens, UniProt P23458). Kind of assay: Inhibition of human recombinant JAK1 by radiometric kinase assay.
Assay [11] deals with Vascular endothelial growth factor receptor 2 (Homo sapiens, UniProt P35968). The assay is described as follows: Inhibition of human recombinant VEGFR2 by radiometric kinase assay.
The target in assay [12] is MAP kinase-activated protein kinase 5 (Homo sapiens, UniProt Q8IW41). Kind of assay: Inhibition of human recombinant MK5 by radiometric kinase assay.
MAP kinase-activated protein kinase 5, sequence (Q8IW41 whole entry): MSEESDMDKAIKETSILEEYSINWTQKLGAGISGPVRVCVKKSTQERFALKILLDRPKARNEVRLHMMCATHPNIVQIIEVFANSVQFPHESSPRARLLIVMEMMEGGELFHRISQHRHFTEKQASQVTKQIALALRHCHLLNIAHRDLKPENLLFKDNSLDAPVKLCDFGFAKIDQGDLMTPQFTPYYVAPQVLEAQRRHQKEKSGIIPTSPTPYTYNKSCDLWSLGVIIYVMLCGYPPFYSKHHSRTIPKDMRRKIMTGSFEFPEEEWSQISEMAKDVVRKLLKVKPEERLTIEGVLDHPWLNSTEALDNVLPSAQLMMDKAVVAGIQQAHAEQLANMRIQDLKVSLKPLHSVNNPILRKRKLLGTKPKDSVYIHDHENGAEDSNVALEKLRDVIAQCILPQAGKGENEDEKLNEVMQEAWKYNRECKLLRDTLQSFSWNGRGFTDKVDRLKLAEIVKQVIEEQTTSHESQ

MAP kinase-interacting serine/threonine-protein kinase 1, sequence (Q9BUB5 whole entry): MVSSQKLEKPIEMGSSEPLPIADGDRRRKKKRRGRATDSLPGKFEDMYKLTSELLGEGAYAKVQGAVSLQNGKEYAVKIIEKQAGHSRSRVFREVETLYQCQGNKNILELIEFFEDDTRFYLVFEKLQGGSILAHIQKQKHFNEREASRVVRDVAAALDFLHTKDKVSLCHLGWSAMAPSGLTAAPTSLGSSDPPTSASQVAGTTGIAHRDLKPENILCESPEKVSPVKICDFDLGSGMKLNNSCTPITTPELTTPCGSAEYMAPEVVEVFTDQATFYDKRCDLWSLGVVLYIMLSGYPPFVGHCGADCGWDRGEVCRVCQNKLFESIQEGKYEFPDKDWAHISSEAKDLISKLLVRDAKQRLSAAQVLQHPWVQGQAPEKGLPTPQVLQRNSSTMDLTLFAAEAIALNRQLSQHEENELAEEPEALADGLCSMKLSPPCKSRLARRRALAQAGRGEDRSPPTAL
Macrophage-stimulating protein receptor, sequence (Q04912 25-304 limits assumed): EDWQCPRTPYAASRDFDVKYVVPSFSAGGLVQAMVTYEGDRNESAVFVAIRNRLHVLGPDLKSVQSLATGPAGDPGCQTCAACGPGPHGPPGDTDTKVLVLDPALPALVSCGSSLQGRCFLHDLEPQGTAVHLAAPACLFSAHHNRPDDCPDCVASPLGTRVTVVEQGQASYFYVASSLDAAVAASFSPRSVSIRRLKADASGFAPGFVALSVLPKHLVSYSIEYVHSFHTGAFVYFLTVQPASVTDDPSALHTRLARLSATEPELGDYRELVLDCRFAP
Macrophage-stimulating protein receptor, sequence (Q04912 310-1400 limits assumed): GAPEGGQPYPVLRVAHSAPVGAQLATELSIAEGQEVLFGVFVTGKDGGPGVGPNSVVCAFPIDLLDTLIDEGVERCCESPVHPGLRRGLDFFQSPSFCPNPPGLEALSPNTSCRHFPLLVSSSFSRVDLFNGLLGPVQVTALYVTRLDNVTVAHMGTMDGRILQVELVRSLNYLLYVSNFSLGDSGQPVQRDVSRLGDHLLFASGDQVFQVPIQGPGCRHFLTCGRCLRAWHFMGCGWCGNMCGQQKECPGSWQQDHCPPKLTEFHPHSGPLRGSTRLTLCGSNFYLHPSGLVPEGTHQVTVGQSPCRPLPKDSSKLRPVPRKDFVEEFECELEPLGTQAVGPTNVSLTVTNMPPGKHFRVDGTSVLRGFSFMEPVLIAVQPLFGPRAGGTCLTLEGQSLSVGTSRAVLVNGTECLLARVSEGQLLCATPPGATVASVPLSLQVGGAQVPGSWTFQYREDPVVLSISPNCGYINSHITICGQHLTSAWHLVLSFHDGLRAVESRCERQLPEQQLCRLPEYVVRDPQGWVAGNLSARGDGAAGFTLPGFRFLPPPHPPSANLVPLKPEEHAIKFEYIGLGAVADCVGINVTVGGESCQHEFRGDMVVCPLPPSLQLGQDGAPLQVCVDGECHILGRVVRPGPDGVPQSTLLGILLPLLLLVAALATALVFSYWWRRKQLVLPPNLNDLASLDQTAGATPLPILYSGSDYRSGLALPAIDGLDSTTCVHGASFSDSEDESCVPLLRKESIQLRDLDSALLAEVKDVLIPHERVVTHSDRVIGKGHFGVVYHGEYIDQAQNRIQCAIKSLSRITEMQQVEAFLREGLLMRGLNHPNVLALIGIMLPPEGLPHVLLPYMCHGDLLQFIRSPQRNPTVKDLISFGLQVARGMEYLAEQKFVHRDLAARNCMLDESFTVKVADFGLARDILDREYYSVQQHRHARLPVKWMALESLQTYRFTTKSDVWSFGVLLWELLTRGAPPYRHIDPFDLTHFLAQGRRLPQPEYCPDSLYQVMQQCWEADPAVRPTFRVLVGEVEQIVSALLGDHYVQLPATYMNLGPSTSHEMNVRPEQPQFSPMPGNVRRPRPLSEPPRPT
Hepatocyte growth factor receptor, sequence (P08581 whole entry): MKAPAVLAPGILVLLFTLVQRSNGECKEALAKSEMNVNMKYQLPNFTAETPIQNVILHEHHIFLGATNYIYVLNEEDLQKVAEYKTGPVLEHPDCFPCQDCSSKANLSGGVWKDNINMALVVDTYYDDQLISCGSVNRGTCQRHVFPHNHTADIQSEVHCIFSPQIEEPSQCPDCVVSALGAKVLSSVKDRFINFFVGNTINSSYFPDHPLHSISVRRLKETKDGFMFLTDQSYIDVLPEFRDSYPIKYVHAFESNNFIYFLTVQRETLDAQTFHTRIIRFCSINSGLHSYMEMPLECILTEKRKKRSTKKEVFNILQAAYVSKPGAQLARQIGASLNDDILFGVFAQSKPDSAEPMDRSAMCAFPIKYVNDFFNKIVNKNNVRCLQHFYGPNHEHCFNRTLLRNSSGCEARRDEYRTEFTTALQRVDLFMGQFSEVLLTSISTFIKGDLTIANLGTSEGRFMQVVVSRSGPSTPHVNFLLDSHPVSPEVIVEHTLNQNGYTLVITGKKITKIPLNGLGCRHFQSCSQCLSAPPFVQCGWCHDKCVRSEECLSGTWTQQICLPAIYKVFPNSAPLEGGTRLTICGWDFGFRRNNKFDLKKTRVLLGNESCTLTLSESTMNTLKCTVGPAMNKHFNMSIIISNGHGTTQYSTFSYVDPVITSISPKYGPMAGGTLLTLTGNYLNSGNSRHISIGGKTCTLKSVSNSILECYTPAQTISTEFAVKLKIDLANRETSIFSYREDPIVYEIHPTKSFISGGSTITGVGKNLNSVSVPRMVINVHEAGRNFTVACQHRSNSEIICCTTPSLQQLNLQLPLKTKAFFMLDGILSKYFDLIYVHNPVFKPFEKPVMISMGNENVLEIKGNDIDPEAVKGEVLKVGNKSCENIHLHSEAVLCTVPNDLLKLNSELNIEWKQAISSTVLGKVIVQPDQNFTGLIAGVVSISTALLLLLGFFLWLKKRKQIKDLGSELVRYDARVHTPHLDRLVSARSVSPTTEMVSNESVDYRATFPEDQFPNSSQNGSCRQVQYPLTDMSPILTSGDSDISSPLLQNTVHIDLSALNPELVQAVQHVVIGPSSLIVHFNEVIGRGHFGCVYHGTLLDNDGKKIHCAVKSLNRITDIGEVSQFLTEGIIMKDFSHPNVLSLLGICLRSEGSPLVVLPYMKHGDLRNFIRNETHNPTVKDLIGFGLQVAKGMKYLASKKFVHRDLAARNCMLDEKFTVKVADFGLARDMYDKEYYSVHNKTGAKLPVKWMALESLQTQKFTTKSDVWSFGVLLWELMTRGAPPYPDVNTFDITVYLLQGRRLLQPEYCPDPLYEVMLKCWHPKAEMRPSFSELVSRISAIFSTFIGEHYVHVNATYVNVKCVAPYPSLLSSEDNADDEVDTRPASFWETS
Vascular endothelial growth factor receptor 2, sequence (P35968 whole entry): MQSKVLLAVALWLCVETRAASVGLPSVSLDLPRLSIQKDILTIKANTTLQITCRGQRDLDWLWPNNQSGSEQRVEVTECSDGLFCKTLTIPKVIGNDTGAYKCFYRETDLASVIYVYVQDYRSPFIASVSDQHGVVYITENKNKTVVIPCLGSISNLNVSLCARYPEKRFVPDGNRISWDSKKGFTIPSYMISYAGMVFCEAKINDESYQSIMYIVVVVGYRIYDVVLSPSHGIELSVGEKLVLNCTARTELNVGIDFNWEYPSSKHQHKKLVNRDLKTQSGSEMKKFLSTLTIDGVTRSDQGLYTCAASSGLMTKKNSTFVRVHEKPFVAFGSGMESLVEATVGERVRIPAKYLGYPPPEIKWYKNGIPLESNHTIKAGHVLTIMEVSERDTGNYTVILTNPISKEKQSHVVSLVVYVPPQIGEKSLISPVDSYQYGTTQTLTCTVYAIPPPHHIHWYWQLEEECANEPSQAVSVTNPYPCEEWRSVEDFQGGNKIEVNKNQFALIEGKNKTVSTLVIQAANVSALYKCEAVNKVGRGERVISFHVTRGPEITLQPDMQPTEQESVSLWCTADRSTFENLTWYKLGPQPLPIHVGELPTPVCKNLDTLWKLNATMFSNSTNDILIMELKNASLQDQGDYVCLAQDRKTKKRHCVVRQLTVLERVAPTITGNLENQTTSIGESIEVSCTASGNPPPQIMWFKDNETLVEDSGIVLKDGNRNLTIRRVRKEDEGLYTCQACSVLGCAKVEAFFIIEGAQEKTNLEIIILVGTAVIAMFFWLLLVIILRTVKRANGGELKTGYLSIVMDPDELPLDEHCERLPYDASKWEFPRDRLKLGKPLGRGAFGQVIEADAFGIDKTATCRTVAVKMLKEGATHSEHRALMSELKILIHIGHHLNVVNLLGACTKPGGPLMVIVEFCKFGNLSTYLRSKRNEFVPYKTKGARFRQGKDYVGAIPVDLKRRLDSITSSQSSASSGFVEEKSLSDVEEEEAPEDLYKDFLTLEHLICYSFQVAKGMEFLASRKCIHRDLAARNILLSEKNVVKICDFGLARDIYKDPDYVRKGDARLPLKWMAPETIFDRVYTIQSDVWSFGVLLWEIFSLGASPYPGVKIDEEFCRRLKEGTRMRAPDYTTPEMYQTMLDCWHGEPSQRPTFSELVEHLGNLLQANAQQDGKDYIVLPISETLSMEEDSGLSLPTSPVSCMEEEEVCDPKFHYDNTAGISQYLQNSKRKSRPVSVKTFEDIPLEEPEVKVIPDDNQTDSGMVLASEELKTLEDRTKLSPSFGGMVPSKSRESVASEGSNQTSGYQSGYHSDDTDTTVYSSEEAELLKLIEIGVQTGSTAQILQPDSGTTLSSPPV

Consider `CN1CCN(c2ccc(Nc3ncc4nc(Nc5ccccc5)n(C5CCCC5)c4n3)cc2)CC1`, for which, in the assay on Mus musculus, the inhibition result was “Active”. The IC50 in the assay on A-431 is 120 nM; with MDA-MB-231, 5 µM; in [1], greater than 10 µM; in assay [2], 9.4 µM; in the assay on HCT-116 it was 3000 nM; in [3], greater than 10 µM. For the same compound, the IC50 in assay [4] is 6.7 µM; with Calu-3, 120 nM; in the assay with NCI-H292 it was 45 nM; with PC-9, 0.22 nM; in assay [6], 6.4 µM; in [7], greater than 10 µM. Moreover, the IC50 in [9] was greater than 10 µM; in assay [10], 3.3 µM; in assay [11] it was 20 nM; in assay [12], greater than 10 µM. For the same compound, in the assay on HCC827 [5], the TGI entry was “Active”. For the same compound, the result in the assay on HCC827 [8] and with NCI-H1975 was Active.

The values are drawn from ChEMBL document CHEMBL2177100, “Structural optimization and structure-activity relationships of N2-(4-(4-Methylpiperazin-1-yl)phenyl)-N8-phenyl-9H-purine-2,8-diamine derivatives, a new class of reversible kinase inhibitors targeting both EGFR-activating and resistance mutations” (J Med Chem, 2012).
